This note sets out measurements from patent US11453672B2, “Substituted pyrazolo[1,5-a]pyrimidines as tropomyosin receptor kinase inhibitors” (SHENZHEN TARGETRX, INC., priority 2017, dated 2022).

The nature of series [1]: Metabolic stability evaluation, human liver microsomes. In kind it is in vitro ADME. Conditions: pH 7.4, 1 μM compound, 0.5 mg/mL protein, 37° C.; for microsomal CLint at 1 μM: read-out: human liver microsome CLint; for half-life at 1 μM: read-out: human liver microsome t1/2. The method, then: (§1) Microsomal experiments: human liver microsomes: 0.5 mg/mL, Xenotech; rat liver microsomes: 0.5 mg/mL, Xenotech; coenzyme (NADPH/NADH): 1 mM, Sigma Life Science; magnesium chloride: 5 mM, 100 mM phosphate buffer agent (pH 7.4).
(§2) Preparation of the stock solution: A certain amount of the powder of the example compounds was accurately weighed and dissolved to 5 mM with DMSO.
(§3) Preparation of phosphate buffer (100 mM, pH 7.4): 150 mL of pre-prepared 0.5 M potassium dihydrogen phosphate solution was mixed with 700 mL of pre-prepared 0.5 M dipotassium hydrogen phosphate solution, and the pH of the mixture was adjusted with 0.5 M dipotassium hydrogen phosphate solution to 7.4. It was diluted 5 times with ultrapure water before use, and magnesium chloride was added to obtain a phosphate buffer (100 mM) containing 100 mM potassium phosphate, 3.3 mM magnesium chloride, and a pH of 7.4.
(§4) A solution of NADPH regeneration system (containing 6.5 mM NADP, 16.5 mM G-6-P, 3 U/mL G-6-P D, 3.3 mM magnesium chloride) was prepared and placed on wet ice before use.
(§5) Preparation of stop solution: acetonitrile solution containing 50 ng/mL propranolol hydrochloride and 200 ng/mL tolbutamide (internal standard). 25057.5 μL of phosphate buffer (pH 7.4) was taken into a 50 mL centrifuge tube, 812.5 μL of human liver microsomes was added, and mixed uniformly to obtain a liver microsome dilution with a protein concentration of 0.625 mg/mL. 25057.5 μL of phosphate buffer (pH 7.4) was taken into a 50 mL centrifuge tube, and 812.5 μL of SD rat liver microsomes was added, and mixed uniformly to obtain a liver microsome dilution with a protein concentration of 0.625 mg/mL.
(§6) Incubation of the sample: The stock solutions of the corresponding compounds were diluted to 0.25 mM as working solutions with an aqueous solution containing 70% acetonitrile before use. 398 μL of human liver microsomes or rat liver microsome dilutions were added to 96-well incubation plates (N=2), and 2 μL of 0.25 mM working solutions were added and mixed uniformly, respectively.
(§7) Determination of metabolic stability: 300 μL of pre-cooled stop solution was added to each well of a 96-well deep well plate, which was placed on ice as a stop plate. The 96-well incubation plate and the NADPH regeneration system were placed in a 37° C. water bath, shaken at 100 rpm, and pre-incubated for 5 min. 80 μL of the incubation solution was removed from each well of the incubation plate, added to the stop plate, and mixed uniformly, and 20 μL of the NADPH regeneration system solution was supplemented as a sample at 0 min. Then, 80 μL of the NADPH regeneration system solution was added to each well of the incubation plate to start the reaction and the timing was started. […] 100 μL of the reaction solution was removed at 10, 30, and 90 min of the reaction, respectively, and added to the stop plate, and the reaction was terminated by vortexing for 3 min. The stop plate was centrifuged at 5000×g for 10 min at 4° C. 100 μL of the supernatant was removed into a 96-well plate to which 100 μL of distilled water was previously added, mixed uniformly, and sample analysis was performed by LC-MS/MS.
(§8) Data analysis: The peak areas of the corresponding compounds and the internal standard were detected by LC-MS/MS system, and the ratios of the peak areas of the compounds to the internal standard were calculated.

Series [2] can be described thus: Metabolic stability evaluation, rat liver microsomes. In kind it is in vitro ADME. Conditions: SD, pH 7.4, 1 μM compound, 0.5 mg/mL protein, 37° C.; for microsomal CLint at 1 μM: read-out: rat liver microsome CLint; for half-life at 1 μM: read-out: rat liver microsome t1/2. The method, then: as §1, §2, §3, §4, §5, §6, §7, §8

Consider `[2H]C1([2H])C[C@H](c2cc(F)ccc2F)N(c2ccn3ncc(NC(=O)N4CC[C@H](O)C4)c3n2)C1` [Compound L-4, (S)—N-(5-((R)-2-(2,5-difluorophenyl)pyrrolidin-1-yl-4,4-d2)pyrazolo[1,5-a]pyrimidin-3-yl)-3-hydroxypyrrolidine-1-carboxamide], for which, in series [1], the microsomal CLint at 1 μM stood at 21 µL/min/mg and the half-life at 1 μM worked out at 1.1 h.

Regarding `[2H]C1([2H])C[C@H](O)C([2H])([2H])N1C(=O)Nc1cnn2ccc(N3CCC[C@@H]3c3cc(F)ccc3F)nc12` [Compound L-1, (S)—N-(5-((R)-2-(2,5-difluorophenyl)pyrrolidin-1-yl)-pyrazolo[1,5-a]pyrimidine-3-yl)-3-hydroxypyrrolidine-2,2,5,5-d4-1-carboxamide], in series [2], the microsomal CLint at 1 μM stood at 19.2 µL/min/mg and the half-life at 1 μM worked out at 1.2 h. In series [1], the microsomal CLint at 1 μM came out at 18.2 µL/min/mg and the half-life at 1 μM was 1.27 h.

`[2H]C1([2H])C[C@H](O)C([2H])([2H])N1C(=O)Nc1cnn2ccc(N3CCC([2H])([2H])C3([2H])c3cc(F)ccc3F)nc12` (stereo in doubt) [Compound L-3, (S)—N-(5-((R)-2-(2,5-difluorophenyl)pyrrolidin-1-yl-2,3,3-d3)-pyrazolo[1,5-a]pyrimidin-3-yl)-3-hydroxypyrrolidine-2,2,5,5-d4-1-carboxamide]: in series [2], the microsomal CLint at 1 μM came out at 16.8 µL/min/mg and the half-life at 1 μM came to 1.38 h. In series [1], the microsomal CLint at 1 μM turned out to be 19.1 µL/min/mg and the half-life at 1 μM was determined as 1.21 h.

Regarding `O=C(Nc1cnn2ccc(N3CCC[C@@H]3c3cc(F)ccc3F)nc12)N1CC[C@H](O)C1` [LOXO-101, (S)—N-(5-((R)-2-(2,5-difluorophenyl)-pyrrolidin-1-yl)pyrazolo[1,5-a]pyrimidin-3-yl)-3-hydroxypyrrolidine-1-carboxamide, reference compound], in series [2], the microsomal CLint at 1 μM worked out at 31.7 µL/min/mg and the half-life at 1 μM was determined as 1.06 h. Besides, in series [1], the microsomal CLint at 1 μM worked out at 21.3 µL/min/mg and the half-life at 1 μM is 1.08 h.

As for `[2H]C1([2H])CC([2H])([2H])[C@@]([2H])(c2cc(F)ccc2F)N1c1ccn2ncc(NC(=O)N3CC[C@H](O)C3)c2n1` [Compound L-7, (S)—N-(5-((R)-2-(2,5-difluorophenyl)pyrrolidin-1-yl-2,3,3,5,5-d2)pyrazolo[1,5-a]pyrimidin-3-yl)-3-hydroxypyrrolidine-1-carboxamide], in series [2], the microsomal CLint at 1 μM came out at 15.8 µL/min/mg and the half-life at 1 μM worked out at 1.46 h. In series [1], the microsomal CLint at 1 μM was found to be 20.6 µL/min/mg and the half-life at 1 μM worked out at 1.12 h.
